Source: article PMC5513091, “A novel Alzheimer’s disease drug candidate targeting inflammation and fatty acid metabolism” (Alzheimer's Research & Therapy, 2017)

Test system: cortex metabolites
Assay: Metabolomic analysis of cortex
Type: in vivo, mice
Conditions: cortex
Experimental: Metabolomic analyses were conducted at Metabolon (Durham, NC, USA) as described previously. For statistical analyses and data display, any missing values were assumed to be below the limits of detection and imputed with the compound minimum (minimum value imputation). An estimate of the FDR (Q value) was calculated to take into account the multiple comparisons that normally occur in metabolomics-based studies, with Q < 0.05 used as an indication of high confidence in a result. The MetaboAnalyst tool was used to generate heat maps.

Compound: Cc1ccc(N(/N=C/c2cccc(OC(F)(F)F)c2)C(=O)C(F)(F)F)c(C)c1 [CAD-31]
- mannose-6-phosphate Fold Change (AD+31/AD, p-value 0.9434): 1.05
- cytidine 5'-monophospho-N-acetylneuraminic acid Fold Change (AD+31/AD, p-value 0.9957): 1
- ergothioneine Fold Change (C+31/C, p-value 0.0002): 0.56
- 17-methylstearate Fold Change (C+31/C, p-value 0.0006): 0.54
- phenol sulfate Fold Change (C+31/C, p-value 0.0029): 0.41
- N-delta-acetylornithine Fold Change (C+31/C, p-value 0.0034): 1.51
- gamma-glutamylhistidine Fold Change (C+31/C, p-value 0.0046): 0.55
- 1-palmitoylglycerol (16:0) Fold Change (C+31/C, p-value 0.0049): 0.67
- dihomo-linoleate (20:2n6) Fold Change (C+31/C, p-value 0.0052): 0.53
- linoleoyl ethanolamide Fold Change (C+31/C, p-value 0.0058): 0.52
- arachidate (20:0) Fold Change (C+31/C, p-value 0.0074): 0.59
- pyroglutamine* Fold Change (C+31/C, p-value 0.0076): 1.27
- adenosine 2'-monophosphate (2'-AMP) Fold Change (C+31/C, p-value 0.0085): 1.49
- docosatrienoate (22:3n3) Fold Change (C+31/C, p-value 0.0095): 0.35
- stearate (18:0) Fold Change (C+31/C, p-value 0.01): 0.61
- nonadecanoate (19:0) Fold Change (C+31/C, p-value 0.0112): 0.63
- 1-oleoylglycerol (18:1) Fold Change (C+31/C, p-value 0.0125): 0.6
- 10-nonadecenoate (19:1n9) Fold Change (C+31/C, p-value 0.0132): 0.6
- 3-hydroxybutyrylcarnitine (2) Fold Change (C+31/C, p-value 0.016): 1.78
- adrenate (22:4n6) Fold Change (C+31/C, p-value 0.0161): 0.5
- oleate/vaccenate (18:1) Fold Change (C+31/C, p-value 0.0172): 0.59
- eicosenoate (20:1) Fold Change (C+31/C, p-value 0.0212): 0.61
- lactate Fold Change (C+31/C, p-value 0.0212): 1.26
- palmitate (16:0) Fold Change (C+31/C, p-value 0.0241): 0.65
- margarate (17:0) Fold Change (C+31/C, p-value 0.0267): 0.61
- 2-hydroxydecanoate Fold Change (C+31/C, p-value 0.0327): 0.68
- 1-arachidonylglycerol (20:4) Fold Change (C+31/C, p-value 0.0338): 0.66
- 3-hydroxybutyrate (BHBA) Fold Change (C+31/C, p-value 0.0349): 1.87
- 2-palmitoylglycerol (16:0) Fold Change (C+31/C, p-value 0.035): 0.65
- succinylcarnitine Fold Change (C+31/C, p-value 0.0357): 0.72
- oleoyl-oleoyl-glycerol (18:1/18:1) [2]* Fold Change (C+31/C, p-value 0.0363): 1.12
- acetyl CoA Fold Change (C+31/C, p-value 0.0372): 1.87
- erucate (22:1n9) Fold Change (C+31/C, p-value 0.0376): 0.64
- glycerol 3-phosphate Fold Change (C+31/C, p-value 0.0387): 0.8
- docosadienoate (22:2n6) Fold Change (C+31/C, p-value 0.0388): 0.62
- acetylcarnitine Fold Change (C+31/C, p-value 0.0422): 1.53
- 1-docosahexaenoylglycerol (22:6) Fold Change (C+31/C, p-value 0.0423): 0.64
- 1-stearoyl-GPG (18:0) Fold Change (C+31/C, p-value 0.0449): 0.59
- arachidonoyl ethanolamide Fold Change (C+31/C, p-value 0.0462): 0.86
- glucosamine-6-phosphate Fold Change (C+31/C, p-value 0.0462): 1.4
- glutamate Fold Change (C+31/C, p-value 0.0465): 1.09
- tricosenoate (23:1) Fold Change (C+31/C, p-value 0.0476): 0.64
- mead acid (20:3n9) Fold Change (C+31/C, p-value 0.0477): 0.6
- adenosine 5'-diphosphoribose (ADP-ribose) Fold Change (C+31/C, p-value 0.0695): 1.15
- sedoheptulose-7-phosphate Fold Change (C+31/C, p-value 0.0888): 1.15
- 2-hydroxystearate Fold Change (C+31/C, p-value 0.0897): 0.58
- UDP-N-acetylglucosamine/galactosamine Fold Change (C+31/C, p-value 0.0923): 1.08
- 2-oleoylglycerol (18:1) Fold Change (C+31/C, p-value 0.0938): 0.77
- putrescine Fold Change (C+31/C, p-value 0.0994): 1.2
- 2-methylcitrate/homocitrate Fold Change (C+31/C, p-value 0.1114): 1.09
- 1-palmitoyl-GPG (16:0)* Fold Change (C+31/C, p-value 0.126): 0.57
- mannose-6-phosphate Fold Change (C+31/C, p-value 0.1316): 1.33
- glutamate, gamma-methyl ester Fold Change (C+31/C, p-value 0.1579): 1.35
- anserine Fold Change (C+31/C, p-value 0.1772): 1.18
- gulonate* Fold Change (C+31/C, p-value 0.179): 1.11
- glucose 6-phosphate Fold Change (C+31/C, p-value 0.199): 1.27
- fructose-6-phosphate Fold Change (C+31/C, p-value 0.2317): 1.26
- methylphosphate Fold Change (C+31/C, p-value 0.233): 1.1
- 1-oleoyl-2-linoleoyl-GPC (18:1/18:2)* Fold Change (C+31/C, p-value 0.2649): 0.92
- N-formylmethionine Fold Change (C+31/C, p-value 0.286): 1.07
- acetylphosphate Fold Change (C+31/C, p-value 0.2996): 1.11
- phosphoethanolamine Fold Change (C+31/C, p-value 0.3099): 1.04
- azelate (nonanedioate) Fold Change (C+31/C, p-value 0.3211): 0.81
- methionine Fold Change (C+31/C, p-value 0.3291): 1.08
- coenzyme A Fold Change (C+31/C, p-value 0.3422): 0.88
- arabinose Fold Change (C+31/C, p-value 0.3687): 1.05
- 1-palmitoyl-2-gamma-linolenoyl-GPC (16:0/18:3n6)* Fold Change (C+31/C, p-value 0.3875): 0.94
- 3-sulfo-nervonoyl-galactosylceramide (d18:1/24:1) Fold Change (C+31/C, p-value 0.4046): 0.97
- N-acetylmethionine Fold Change (C+31/C, p-value 0.4061): 0.96
- UDP-galactose Fold Change (C+31/C, p-value 0.4075): 0.86
- N-acetylglucosaminylasparagine Fold Change (C+31/C, p-value 0.4104): 0.96
- prolylglycine Fold Change (C+31/C, p-value 0.4172): 0.96
- 1-stearoyl-GPC (18:0) Fold Change (C+31/C, p-value 0.4215): 1.08
- N-acetylalanine Fold Change (C+31/C, p-value 0.4319): 1.04
- 1-oleoyl-2-arachidonoyl-GPI (18:1/20:4) * Fold Change (C+31/C, p-value 0.4368): 1.04
- 1-(1-enyl-stearoyl)-2-arachidonoyl-GPE (P-18:0/20:4)* Fold Change (C+31/C, p-value 0.4593): 0.98
- UDP-glucose Fold Change (C+31/C, p-value 0.4697): 0.92
- galactose 1-phosphate Fold Change (C+31/C, p-value 0.4772): 1.14
- 1-methylimidazoleacetate Fold Change (C+31/C, p-value 0.4871): 1.07
- cytidine 5'-monophospho-N-acetylneuraminic acid Fold Change (C+31/C, p-value 0.4904): 0.95
- ribose Fold Change (C+31/C, p-value 0.5044): 1.04
- glycerate Fold Change (C+31/C, p-value 0.512): 0.86
- glycerophosphoethanolamine Fold Change (C+31/C, p-value 0.5491): 1.04
- palmitoylcholine Fold Change (C+31/C, p-value 0.5572): 0.92
- 1-stearoyl-2-oleoyl-GPI (18:0/18:1)* Fold Change (C+31/C, p-value 0.5722): 1.05
- sphingomyelin (d18:1/18:1, d18:2/18:0) Fold Change (C+31/C, p-value 0.5944): 1.03
- 5-methylthioadenosine (MTA) Fold Change (C+31/C, p-value 0.6209): 1.02
- 6-phosphogluconate Fold Change (C+31/C, p-value 0.6443): 0.95
- 3-hydroxy-3-methylglutarate Fold Change (C+31/C, p-value 0.6796): 1.02
- 2'-deoxycytidine Fold Change (C+31/C, p-value 0.6852): 1.04
- N-acetylglutamate Fold Change (C+31/C, p-value 0.7525): 0.99
- beta-citrylglutamate Fold Change (C+31/C, p-value 0.7663): 1.03
- O-methyltyrosine Fold Change (C+31/C, p-value 0.8149): 1.04
- N-acetyl-glucosamine 1-phosphate Fold Change (C+31/C, p-value 0.8284): 1.06
- 1-palmitoyl-2-oleoyl-GPS (16:0/18:1) Fold Change (C+31/C, p-value 0.8378): 1.01
- hypoxanthine Fold Change (C+31/C, p-value 0.8444): 1.01
- lysine Fold Change (C+31/C, p-value 0.8761): 1
- hippurate Fold Change (C+31/C, p-value 0.9003): 1.01
- N-acetylneuraminate Fold Change (C+31/C, p-value 0.9027): 1.01
- 1-palmitoyl-2-palmitoleoyl-GPC (16:0/16:1)* Fold Change (C+31/C, p-value 0.9106): 1
- glycerophosphoglycerol Fold Change (C+31/C, p-value 0.9156): 1
- deoxycarnitine Fold Change (C+31/C, p-value 0.9284): 1.02
- mannose Fold Change (C+31/C, p-value 0.9846): 0.96
